Results reported in patent US8614068B2, “Process for producing hepcidin” (Hellenic Pasteur Institute, priority 2007, dated 2013).

Legend:
[1] = biological target: T1, ferroportin (FPN1) (Mus musculus, UniProt Q9JHI9); assay: Western blot of ferroportin expression in macrophages; assay type: cell-based, murine; conditions: RAW 264.7, 1 μM, 4 h at 37° C.
T1 construct: endogenous in cells; host or cells: RAW 264.7 murine macrophages
T1 sequence (Q9JHI9 1-570): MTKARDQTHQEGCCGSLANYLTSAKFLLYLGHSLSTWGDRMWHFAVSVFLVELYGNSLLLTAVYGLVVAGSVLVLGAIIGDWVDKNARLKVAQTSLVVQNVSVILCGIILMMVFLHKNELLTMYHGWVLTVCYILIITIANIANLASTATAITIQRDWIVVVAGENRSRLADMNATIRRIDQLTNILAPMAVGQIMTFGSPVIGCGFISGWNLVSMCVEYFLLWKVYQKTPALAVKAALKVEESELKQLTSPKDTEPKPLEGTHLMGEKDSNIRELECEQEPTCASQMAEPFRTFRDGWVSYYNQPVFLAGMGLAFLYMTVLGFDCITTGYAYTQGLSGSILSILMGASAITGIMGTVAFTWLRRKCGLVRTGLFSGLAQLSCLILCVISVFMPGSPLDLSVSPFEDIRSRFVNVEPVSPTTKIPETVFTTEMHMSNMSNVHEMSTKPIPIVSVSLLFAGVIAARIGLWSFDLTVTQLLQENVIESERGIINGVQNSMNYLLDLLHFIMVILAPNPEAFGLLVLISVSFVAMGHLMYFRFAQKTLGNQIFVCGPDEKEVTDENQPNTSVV

[2] = tested on: E. coli strain ML35; conditions: at 30 μM
Protocol: Antimicrobial activity of recombinant tagged hepcidins. E. coli strain ML35 was subjected to CFU assay in order to determine the antimicrobial activity of synthetic hepcidin 25 (s. Hep25) having the sequence os SEQ ID NO. 2, Hep-25His having the sequence of SEQ ID NO. 6, Hep-25MycHis having the sequence of SEQ ID NO. 8, Hep-20MycHis having the sequence of SEQ ID NO. 7 and negative peptide having the sequence SEQ ID NO. 9 at the concentrations indicated for 2 h at 37° C. Sodium phosphate buffer was used as negative control.
Antimicrobial assay—All purified recombinant hepcidins were tested for antibacterial activity against E. coli ML35 and BL21(DE) is a CFU assay (Porter E. M., van Dam E., Valore E. V., Ganz T., Broad-spectrum antimicrobial activity of human intestinal defensin 5, Infect. Immun. 65 (1997) 2396-2401.). Bacterial cell cultures were grown to OD600=0.2 (5×10^7 cfu/ml) and resuspended to a final concentration of 10^6 cfu/ml in 20mM sodium phosphate buffer, pH7.4. Various concentrations of peptides were added to a final volume of 100 μl and after incubation for 2 h at 37° C., surviving cells were plated in triplicates to LB/agar plates.
Antimicrobial activity of recombinant hepcidins—The colony forming unit assay (E. M. Porter, E. van Dam, E. V. Valore, T. Ganz, Broad-spectrum antimicrobial activity of human intestinal defensin 5, Infect. Immun. 65 (1997) 2396-2401) was used to determine the antimicrobial activity of the purified recombinant hepcidin forms against the E. coli strain, ML35. […] Surviving microbes were counted following incubation with various concentrations of recombinant hepcidin preparations, synthetic hepcidin or negative peptide for 2 h at 37° C.

[3] = biological target: T1, ferroportin (FPN1); assay: Western blot of ferroportin expression in macrophages; assay type: cell-based, murine
Protocol: A, RAW 264.7 macrophages were treated with 11 μM and 10 μM of synthetic hepcidin-25 (having the sequence of SEQ ID NO. 2) and Hep-25His (having the sequence of SEQ ID NO. 6) for 4 h at 37° C. or with PBS as negative control. Cell lysates were subjected to 8% SDS PAGE and Western Blot with antibodies against TfR1, Ferroportin and actin as loading control. B, The signal density of ferroportin, TfR1 and actin protein bands from two independent experiments were quantified by densitometry and their intensity relative to actin was calculated. […] Hep25-His, negative peptide and PBS was incubated with Raw 264.7 macrophages, followed by cross-linking with DSS. Cell lysates were incubated with Ni2-NTA and eluates were analyzed by Western blot using anti-FPN1 Ab. […] HEK293-Fpn cells were induced with ponasterone for 24 h and then treated with Hep25-His or synthetic hepcidin 25 (s. Hep25) for 3 h. Fluorescence was visualized with a Leica TCS confocal microscope.
Western blotting—1×10^6 cells (RAW 264.7, THP-1 or J774) were plated in […] plates and after 12-20 h cells were treated with hepcidins in serum-free DMEM for 4 h, at 37° C. Afterwards, cells were re-suspended in lysis buffer (1% Triton, 25 mM Hepes pH 7.4, 150 mM NaCl, 10% Glycerol, 5 mM EDTA, 0.5 mM PMSF, protein inhibitors (Roche, Mannheim, Germany) and quantified by Bradford assay (Biorad, Hercules, Calif.). 30 μg of cell lysate was analyzed on 8% SDS-PAGE. Proteins were transferred to Hybond C nitrocellulose membrane (Amersham Biosciences, Piscataway, N.J.) and the membranes were incubated with the primary antibodies rabbit anti-ferroportin (Alpha Diagnostics, San Antonio, Tex.), mouse anti-TfR1 (Zymed, Invitrogen, Carlsbad, Calif.) and mouse anti-β actin (Santa Cruz Biotech, Santa Cruz, Calif.), in a dilution of 1:1000, overnight at 4° C. After washing, the membranes were incubated with anti-rabbit and anti-mouse secondary antibodies conjugated with HRP, in a dilution of 1:5000 (DakoCytomation, Carpinteria, Calif.), for 1 h at room temperature. Specific signal was detected with a chemiluminescence assay kit (ECL, Amersham Biosciences, Piscataway, N.J.). The bands were quantified by densitometry using the Quantity-One (Biorad, Hercules, Calif.) software. Data are shown as means±SD. Statistical analysis was performed by student t-Test.

Substance: hepcidin-25His [Hep-25His]
- reduction of FPN1 in comparison to untreated cells [1]: 37%±7
- reduction of the number of surviving bacteria [2]: 1000 fold
- reduction of FPN1 in comparison to untreated cells ([3]; RAW 264.7, 10 μM, 4 h at 37° C.): 48±3%
- decrease in ferroportin levels ([3]; RAW 264.7 macrophages): ~50%
- effect of higher concentrations on FPN1 and TfR1 ([3]; concentrations higher than 10 μM, data not shown): did not have a stronger effect
